Patent US6596687B1, “Cell adhesion inhibitors” (Biogen, Inc., priority 1995, dated 2003)
Numbered stars: 1 amine (or outer) side, 2 acyl side, 3 side chain; on linkers, the order of the positions; unused ones are H or OH. Square brackets hold non-standard residues; d marks the D form. Peptide text beside a SMILES is read from it. * marks the point of attachment. X2 = O=C(Cc1ccc(N[*:1])cc1)[*:2]; PhAc = O=C(Cc1ccccc1)*; CO = O=C([*:1])[*:2]; Bz = O=C(c1ccccc1)*; NHPh = c1ccc(N*)cc1; Bn = c1ccc(C*)cc1; NHBu = CCCCN*

Target: T1, VLA4 (Homo sapiens, UniProt P05556+P13612)
T1 construct: endogenous in cells; host or cells: Ramos cells
Test: Inhibition of VLA4-dependent adhesion of Ramos cells to BSA-CS1
Assay type: cell-based
Conditions: Ramos cells, BSA-CS1 coated wells, 2 mM MnCl2, 30 minutes at room temperature; read-out: IC50
Method in brief: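 BCECF-AM-labelled Ramos cells in Tris buffer pH 7.4 with 2 mM MnCl2 were added with compound to wells coated with BSA-conjugated Cys-Tyr-CS1 peptide (1 μg/mL). Cells and compound were incubated for 30 min at room temperature, in triplicate. Inhibition was quantified from bound fluorescence against no-compound controls, with uncoated wells used for nonspecific binding.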

T1 sequence (P13612 34-1032): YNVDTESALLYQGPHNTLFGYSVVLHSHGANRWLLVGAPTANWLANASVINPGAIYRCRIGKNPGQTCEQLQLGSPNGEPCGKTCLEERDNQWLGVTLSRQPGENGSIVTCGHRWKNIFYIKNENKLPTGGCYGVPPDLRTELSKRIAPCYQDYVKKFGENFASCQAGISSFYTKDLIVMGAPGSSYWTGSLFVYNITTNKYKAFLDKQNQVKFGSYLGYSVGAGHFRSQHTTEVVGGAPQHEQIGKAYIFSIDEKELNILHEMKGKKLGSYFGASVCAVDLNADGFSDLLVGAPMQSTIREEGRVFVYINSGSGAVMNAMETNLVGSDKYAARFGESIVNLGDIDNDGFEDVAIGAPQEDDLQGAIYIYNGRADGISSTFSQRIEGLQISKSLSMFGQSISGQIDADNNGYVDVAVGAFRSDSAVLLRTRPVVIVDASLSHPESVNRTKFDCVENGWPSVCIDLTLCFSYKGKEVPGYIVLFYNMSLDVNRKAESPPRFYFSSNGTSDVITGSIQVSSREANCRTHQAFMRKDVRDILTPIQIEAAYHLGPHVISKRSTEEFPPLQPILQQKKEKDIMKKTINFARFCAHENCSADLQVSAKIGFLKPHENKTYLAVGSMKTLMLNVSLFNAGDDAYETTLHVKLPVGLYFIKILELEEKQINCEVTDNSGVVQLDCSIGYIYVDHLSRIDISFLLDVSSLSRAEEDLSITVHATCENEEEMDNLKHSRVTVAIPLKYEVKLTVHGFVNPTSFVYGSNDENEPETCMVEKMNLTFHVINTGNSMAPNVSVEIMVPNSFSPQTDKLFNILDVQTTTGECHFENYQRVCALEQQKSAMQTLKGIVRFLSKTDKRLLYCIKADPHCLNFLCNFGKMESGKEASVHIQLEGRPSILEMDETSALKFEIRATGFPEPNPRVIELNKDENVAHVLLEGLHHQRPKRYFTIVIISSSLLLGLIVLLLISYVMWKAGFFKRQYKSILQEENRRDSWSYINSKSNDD
T1 sequence (P05556 21-798): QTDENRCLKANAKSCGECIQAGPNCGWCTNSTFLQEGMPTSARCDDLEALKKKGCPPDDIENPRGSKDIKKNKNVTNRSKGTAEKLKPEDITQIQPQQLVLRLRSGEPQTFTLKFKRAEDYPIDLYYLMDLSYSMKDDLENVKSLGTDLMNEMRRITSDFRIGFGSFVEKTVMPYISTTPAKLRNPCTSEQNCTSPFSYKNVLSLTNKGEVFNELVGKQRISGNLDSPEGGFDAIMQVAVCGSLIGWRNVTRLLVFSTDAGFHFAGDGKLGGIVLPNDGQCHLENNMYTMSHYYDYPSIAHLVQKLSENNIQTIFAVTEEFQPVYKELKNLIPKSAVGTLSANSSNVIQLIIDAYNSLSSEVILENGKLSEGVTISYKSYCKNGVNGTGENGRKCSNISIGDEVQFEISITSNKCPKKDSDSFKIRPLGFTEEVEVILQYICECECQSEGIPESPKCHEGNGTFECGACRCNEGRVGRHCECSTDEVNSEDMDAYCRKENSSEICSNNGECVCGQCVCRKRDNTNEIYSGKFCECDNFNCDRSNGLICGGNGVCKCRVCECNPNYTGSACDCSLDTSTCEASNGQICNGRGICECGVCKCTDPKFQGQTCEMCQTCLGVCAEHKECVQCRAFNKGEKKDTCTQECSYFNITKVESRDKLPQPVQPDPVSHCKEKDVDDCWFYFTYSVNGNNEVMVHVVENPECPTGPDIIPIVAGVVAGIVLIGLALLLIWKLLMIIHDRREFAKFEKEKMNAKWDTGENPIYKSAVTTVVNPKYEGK

SMILES	IC50 [µM]
CC(C)C[C@H](NC(=O)c1ccc2ccccc2n1)C(=O)N[C@@H](CC(=O)O)C(=O)N[C@@H](CC(=O)O)C(=O)O [Compound 160]	> 10
CC(C)CNC(=O)[C@H](CC(=O)O)NC(=O)[C@H](CC(C)C)NC(=O)CCCc1ccccc1 [Compound 161]	> 10
CC(C)CNC(=O)[C@H](CC(=O)O)NC(=O)[C@H](CC(C)C)NC(=O)CCc1ccccc1 [Compound 162]	> 10
CC(C)CNC(=O)[C@H](CC(=O)O)NC(=O)[C@H](CC(C)C)NC(=O)CNC(=O)c1ccccc1 [Compound 163]	> 10
CNC(=O)[C@@H](NC(=O)[C@H](CC(=O)O)NC(=O)[C@H](CC(C)C)NC(=O)c1ccc2ccccc2n1)C(C)C [Compound 164]	0.05 to 10
COc1ccc(C(=O)N[C@@H](CC(C)C)C(=O)N[C@@H](CC(=O)O)C(=O)NCC(C)C)cc1 [Compound 165]	> 10
COC(=O)[C@@H](NC(=O)[C@H](CC(=O)O)NC(=O)[C@H](CC(C)C)NC(=O)CCCc1ccccc1)C(C)C [Compound 166]	> 10
COC(=O)[C@H](CCSC)NC(=O)[C@@H](NC(=O)[C@H](CC(=O)O)NC(=O)[C@H](CC(C)C)NC(=O)OC(C)(C)C)C(C)C [Compound 167] (HELM PEPTIDE1{[CC(C)(C)OC(=O)[*:2]].L.D.V.M.[CO[*:1]]}$$$$V2.0)	> 10
COC(=O)[C@H](CCSC)NC(=O)[C@@H](NC(=O)[C@H](CC(=O)O)NC(=O)[C@H](CC(C)C)NC(=O)c1ccc2ccccc2n1)C(C)C [Compound 168] (HELM PEPTIDE1{[O=C(c1ccc2ccccc2n1)[*:2]].L.D.V.M.[CO[*:1]]}$$$$V2.0)	0.05 to 10
CCCCNC(=O)N[C@@H](CC(=O)O)C(=O)N[C@H](C(=O)OC)C(C)C [Compound 169] ({NHBu-CO}-Asp-Val-OMe)	> 10
COC(=O)[C@@H](NC(=O)[C@H](CC(=O)O)NC(=O)[C@H](CC(C)C)NC(=O)c1ccc2ccccc2n1)[C@@H](C)O [Compound 170]	> 10
CC(C)CNC(=O)[C@H](CC(=O)O)NC(=O)[C@H](CC(C)C)NC(=O)NC(C)(C)C [Compound 171]	> 10
COC(=O)[C@@H](NC(=O)[C@H](CC(=O)O)NC(=O)CNC(=O)c1ccccc1)C(C)C [Compound 172] (HELM PEPTIDE1{[O=C(c1ccccc1)[*:2]].G.D.V.[CO[*:1]]}$$$$V2.0)	> 10
COC(=O)C[C@H](NC(=O)CNC(=O)c1ccccc1)C(=O)N[C@H](C(=O)OC)C(C)C [Compound 173] (Bz-Gly-Asp(OMe)-Val-OMe)	> 10
CC(C)C[C@H](NC(=O)c1ccc2ccccc2n1)C(=O)N[C@@H](CC(=O)O)C(=O)NC(CO)C(C)C (some centres unmarked) [Compound 174]	0.05 to 10
CC(C)C[C@H](NC(=O)c1ccc2ccccc2n1)C(=O)N[C@@H](CC(=O)O)C(=O)N[C@H](C(=O)N1CCOCC1)C(C)C [Compound 175]	0.05 to 10
COC(=O)[C@@H](NC(=O)[C@H](CC(=O)O)NC(=O)[C@H](CC(C)C)NC(=O)Cc1ccc(OC)cc1)[C@@H](C)O [Compound 176]	> 10
COC(=O)[C@@H](NC(=O)[C@H](CC(=O)O)NC(=O)[C@H](CC(C)C)NS(=O)(=O)c1ccc(OC)cc1)[C@@H](C)O [Compound 177]	> 10
CNC(=O)[C@@H](NC(=O)[C@H](CC(=O)O)NC(=O)[C@H](CC(C)C)N(C)C(=O)c1ccc2ccccc2n1)C(C)C [Compound 179]	> 10

SMILES	IC50 [µM]
CNC(=O)[C@@H](NC(=O)[C@H](CC(=O)O)NC(=O)[C@H](CC(C)C)N(C)C(=O)Cc1ccccc1)C(C)C [Compound 180] (HELM PEPTIDE1{[O=C(Cc1ccccc1)[*:2]].[meL].D.V.[CN[*:1]]}$$$$V2.0)	0.05 to 10
CNC(=O)[C@@H](NC(=O)[C@H](CC(=O)O)NC(=O)[C@H](CC(C)C)NC(=O)Cc1ccccc1)C(C)C [Compound 181] (HELM PEPTIDE1{[O=C(Cc1ccccc1)[*:2]].L.D.V.[CN[*:1]]}$$$$V2.0)	> 10
CNC(=O)[C@@H](NC(=O)[C@H](CC(=O)O)NC(=O)[C@H](CC(C)C)N(C)C(=O)CCc1ccccc1)C(C)C [Compound 182] (HELM PEPTIDE1{[O=C(CCc1ccccc1)[*:2]].[meL].D.V.[CN[*:1]]}$$$$V2.0)	> 10
CNC(=O)[C@@H](NC(=O)[C@H](CC(=O)O)NC(=O)[C@H](CCSC)NC(=O)Cc1ccccc1)C(C)C [Compound 183] (HELM PEPTIDE1{[O=C(Cc1ccccc1)[*:2]].M.D.V.[CN[*:1]]}$$$$V2.0)	> 10
CNC(=O)[C@@H](NC(=O)[C@H](CC(=O)O)NC(=O)[C@H](CC(C)C)NC(=O)Nc1ccccc1)C(C)C [Compound 187] ({NHPh-CO}-Leu-Asp-Val-NHMe)	> 10
CNC(=O)[C@@H](NC(=O)[C@H](CC(=O)O)NC(=O)[C@H](CC(C)C)N(C)C(=O)Cc1ccc(O)cc1)C(C)C [Compound 188]	> 10
CNC(=O)[C@@H](NC(=O)[C@H](CC(=O)O)NC(=O)[C@H](CC(C)C)NS(=O)(=O)c1ccccc1)C(C)C [Compound 189]	> 10
COC(=O)[C@@H](NC(=O)[C@H](CC(=O)O)NC(=O)[C@H](CC(C)C)NC(=O)Cc1ccccc1)[C@@H](C)OC [Compound 190] (PhAc-Leu-Asp-Thr(Me)-OMe)	> 10
COC(=O)[C@@H](NC(=O)[C@H](CC(=O)O)NC(=O)[C@H](CC(C)C)NC(=O)Cc1ccccc1)[C@@H](C)O [Compound 191] (HELM PEPTIDE1{[O=C(Cc1ccccc1)[*:2]].L.D.T.[CO[*:1]]}$$$$V2.0)	> 10
COC(=O)[C@@H](NC(=O)[C@H](CC(=O)O)NC(=O)[C@H](CC(C)C)NC(=O)Cc1ccccc1)[C@@H](C)OCc1ccccc1 [Compound 192] (PhAc-Leu-Asp-Thr(Bn)-OMe)	0.05 to 10
COC(=O)[C@@H](NC(=O)[C@H](CC(=O)O)NC(=O)[C@H](CC(C)C)NC(=O)Cc1ccccc1)[C@@H](C)OC(C)=O [Compound 193] (PhAc-Leu-Asp-Thr(Ac)-OMe)	> 10
CCCCOC(=O)[C@@H](NC(=O)[C@H](CC(=O)O)NC(=O)[C@H](CC(C)C)NC(=O)c1ccc2ccccc2n1)[C@@H](C)O [Compound 195]	> 10
CCCCOC(=O)[C@@H](NC(=O)[C@H](CC(=O)O)NC(=O)[C@H](CC(C)C)NC(=O)Cc1ccccc1)C(C)C [Compound 196]	> 10
COc1ccc(CNC(=O)[C@@H](NC(=O)[C@H](CC(=O)O)NC(=O)[C@H](CC(C)C)NC(=O)c2ccc3ccccc3n2)[C@@H](C)O)cc1 [Compound 197]	0.05 to 10
CC(C)C[C@H](NC(=O)c1ccc2ccccc2n1)C(=O)N[C@@H](CC(=O)O)C(=O)NCCC(C)(C)C [Compound 198]	> 10
CC(C)C[C@H](NC(=O)Cc1ccc(NC(=O)Nc2ccccc2)cc1)C(=O)N[C@@H](CC(=O)O)C(=O)N[C@H](C(=O)N1CCC[C@H]1C(N)=O)C(C)C [Compound 201] ({NHPh-CO}-[X2]LDVP-NH2)	0.05 to 10
CC(C)C[C@H](NC(=O)Cc1ccc(NC(=O)Nc2ccccc2)cc1)C(=O)N[C@@H](CC(=O)O)C(=O)N[C@H](C(=O)O)C(C)C [Compound 203]	< 0.05
CNC(=O)[C@@H](NC(=O)[C@H](CC(=O)O)NC(=O)[C@H](CC(C)C)NC(=O)Cc1ccc(NC(=O)Nc2ccccc2)cc1)C(C)C [Compound 204]	0.05 to 10
CC(C)CNC(=O)[C@@H](NC(=O)[C@H](CC(=O)O)NC(=O)[C@H](CC(C)C)NC(=O)Cc1ccc(NC(=O)Nc2ccccc2)cc1)C(C)C [Compound 205]	0.05 to 10
